Assay results taken from US6495559B2, “NPY Y5 receptor antagonists” (Merck & Co., Inc., priority 1998, dated 2002).

Structure (SMILES) | melting point [°C]
CS(=O)(=O)N1CC2(CCN(C(=O)Nc3cnc(-c4nncs4)cn3)CC2)c2cc(F)ccc21 [Compound 150, 5-fluoro-1-methylsulfonyl-N-[5-(1,3,4-thiadiazol-2-yl)-2-pyrazinyl]spiro[indoline-3,4′-piperidine]-1′-carboxamide] | 262 to 266
CS(=O)(=O)N1CC2(CCN(C(=O)Nc3nc4cc(F)ccc4s3)CC2)c2ccccc21 [Compound 129, N-(5-fluorobenzothiazol-2-yl)-1-methylsulfonylspiro[indoline-3,4′-piperidine]-1′-carboxamide] | 243 to 244
CCS(=O)(=O)N1CC2(CCN(C(=O)Nc3cc(-c4ccc(Cl)cc4)on3)CC2)c2ccccc21 [Compound 143, N-[5-(4-chlorophenyl)isoxazol-3-yl]-1-ethylsulfonylspiro[indoline-3,4′-piperidine]-1′-carboxamide] | 178.3 to 178.5
CS(=O)(=O)N1CC2(CCN(C(=O)Nc3ncc(-c4ccccc4)cn3)CC2)c2ccccc21 [Compound 115, 1-methylsulfonyl-N-(5-phenyl-2-pyrimidinyl)spiro[indoline-3,4′-piperidine]-1′-carboxamide] | 122 to 123
CS(=O)(=O)N1CC2(CCN(C(=O)Nc3cnc(-c4ccccn4)cn3)CC2)c2ccccc21 [Compound 104, 1-methylsulfonyl-N-[5-(2-pyridyl)-2-pyrazinyl]spiro[indoline-3,4′-piperidine]-1′-carboxamide] | 234 to 235
CCS(=O)(=O)N1CC2(CCN(C(=O)Nc3cn(-c4ccccc4F)cn3)CC2)c2ccccc21 [Compound 204, 1-ethylsulfonyl-N-[1-(2-fluorophenyl)imidazol-4-yl]spiro[indoline-3,4′-piperidine]-1′-carboxamide] | 180 to 181.5
CC(=O)c1ccc(NC(=O)N2CCC3(CC2)CN(S(N)(=O)=O)c2ccccc23)cc1 [Compound 300, N-(4-acetylphenyl)-1-sulfamoylspiro[indoline-3,4′-piperidine]-1′-carboxamide] | 233 to 236
NS(=O)(=O)N1CC2(CCN(C(=O)Nc3nnc(-c4ccccc4)s3)CC2)c2ccccc21 [Compound 400, N-(5-phenyl-1,3,4-thiadiazol-2-yl)-1-sulfamoylspiro[indoline-3,4′-piperidine]-1′-carboxamide] | > 300
CS(=O)(=O)N1CC2(CCN(C(=O)Nc3ccc(-c4ccccc4)nc3)CC2)c2ccccc21 [Compound 114, 1-methylsulfonyl-N-(2-phenyl-5-pyridyl)spiro[indoline-3,4′-piperidine]-1′-carboxamide] | 224
CS(=O)(=O)N1CC2(CCN(C(=O)Nc3cn(-c4cccc(Cl)c4)cn3)CC2)c2ccccc21 [Compound 127, N-[1-(3-chlorophenyl)imidazol-4-yl]-1-methylsulfonylspiro[indoline-3,4′-piperidine]-1′-carboxamide] | 232 to 234
CS(=O)(=O)N1CC2(CCN(C(=O)Nc3cnc(-c4ncns4)cn3)CC2)c2ccc(F)cc21 [Compound 149, 6-fluoro-1-methylsulfonyl-N-[5-(1,2,4-thiadiazol-5-yl)-2-pyrazinyl]spiro[indoline-3,4′-piperidine]-1′-carboxamide] | 237 to 239
CN(C)C(=O)N1CC2(CCN(C(=O)Nc3nnc(-c4ccccc4)s3)CC2)c2ccccc21 [Compound 800, 1-Dimethylcarbamoyl-N-(5-phenyl-1,3,4-thiadiazol-2-yl)spiro[indoline-3,4′-piperidine]-1′-carboxamide] | 267
CS(=O)(=O)N1CC2(CCN(C(=O)Nc3cnc(-c4ccccc4)cn3)CC2)c2ccc(F)cc21 [Compound 139, 6-fluoro-1-methylsulfonyl-N-(5-phenyl-2-pyrazinyl)spiro[indoline-3,4′-piperidine]-1′-carboxamide] | 234 to 237
CC(=O)N1CC2(CCN(C(=O)Nc3nnc(-c4ccccc4)s3)CC2)c2ccccc21 [Compound 600, 1-Acetyl-N-(5-phenyl-1,3,4-thiadiazol-2-yl)spiro[indoline-3,4′-piperidine]-1′-carboxamide] | 260
Cc1cccc2sc(NC(=O)N3CCC4(CC3)CN(S(C)(=O)=O)c3ccccc34)nc12 [Compound 137, N-(4-methylbenzothiazol-2-yl)-1-methylsulfonylspiro[indoline-3,4′-piperidine]-1′-carboxamide] | 182 to 183
Cc1ccc2nc(NC(=O)N3CCC4(CC3)CN(S(C)(=O)=O)c3ccccc34)cnc2c1 [Compound 130, 1-methylsulfonyl-N-(6-methylquinoxalin-2-yl)spiro[indoline-3,4′-piperidine]-1′-carboxamide] | 224 to 225
CS(=O)(=O)N1CC2(CCN(C(=O)Nc3nc(-c4ccccc4)co3)CC2)c2ccccc21 [Compound 119, 1-methylsulfonyl-N-(4-phenyloxazol-2-yl)spiro[indoline-3,4′-piperidine]-1′-carboxamide] | 189 to 192
CCS(=O)(=O)N1CC2(CCN(C(=O)Nc3cn(-c4ccccc4)cn3)CC2)c2cc(F)ccc21.Cl | 140 to 141
CS(=O)(=O)N1CC2(CCN(C(=O)Nc3cc(-c4ccccc4)no3)CC2)c2cccnc21 [Compound 1402, 7-aza-N-(3-phenyl-5-isoxazolyl)-1-methylsulfonylspiro[indoline-3,4′-piperidine]-1′-carboxamide] | 211 to 212

Structure (SMILES) | melting point [°C]
CS(=O)(=O)N1CC2(CCN(C(=O)Nc3nsc(-c4ccccc4)n3)CC2)c2ccccc21 [Compound 123, 1-methylsulfonyl-N-(5-phenyl-1,2,4-thiadiazol-3-yl)spiro[indoline-3,4′-piperidine]-1′-carboxamide] | 133 to 136
CS(=O)(=O)N1CC2(CCN(C(=O)Nc3cnc(-c4ccccc4)cn3)CC2)c2cc(F)ccc21 [Compound 202, 5-fluoro-1-methylsulfonyl-N-(5-phenyl-2-pyrazinyl)spiro[indoline-3,4′-piperidine]-1′-carboxamide] | 215.5 to 215.8
C=CCc1cnc(NC(=O)N2CCC3(CC2)CN(S(C)(=O)=O)c2ccccc23)cn1 [Compound 105, 1-methylsulfonyl-N-[5-(2-propenyl)-2-pyrazinyl]spiro[indoline-3,4′-piperidine]-1′-carboxamide] | 180.5 to 182.7
CS(=O)(=O)N1CC2(CCN(C(=O)Nc3cnc(-c4ncns4)cn3)CC2)c2cc(F)ccc21 [Compound 151, 5-fluoro-1-methylsulfonyl-N-[5-(1,2,4-thiadiazol-5-yl)-2-pyrazinyl]spiro[indoline-3,4′-piperidine]-1′-carboxamide] | 239 to 240
CCS(=O)(=O)N1CC2(CCN(C(=O)Nc3cnc(-c4nncs4)cn3)CC2)c2ccccc21 [Compound 152, 1-ethylsulfonyl-N-[5-(1,3,4-thiadiazol-2-yl)-2-pyrazinyl]spiro[indoline-3,4′-piperidine]-1′-carboxamide] | 193 to 194
CS(=O)(=O)N1CC2(CCN(C(=O)Nc3cnc(-c4ccccc4)nc3)CC2)c2ccccc21 [Compound 113, 1-methylsulfonyl-N-(2-phenyl-5-pyrimidinyl)spiro[indoline-3,4′-piperidine]-1′-carboxamide] | 251 to 253
CS(=O)(=O)N1CC2(CCN(C(=O)Nc3cnc(-c4ccccc4Cl)cn3)CC2)c2ccccc21 [Compound 103, N-[5-(2-chlorophenyl)-2-pyrazinyl]-1-methylsulfonylspiro[indoline-3,4′-piperidine]-1′-carboxamide] | 197 to 199
CS(=O)(=O)N1CC2(CCN(C(=O)Nc3cnc(-c4nncs4)cn3)CC2)c2ccc(F)cc21 [Compound 148, 6-fluoro-1-methylsulfonyl-N-[5-(1,3,4-thiadiazol-2-yl)-2-pyrazinyl]spiro[indoline-3,4′-piperidine]-1′-carboxamide] | 242 to 243
COc1ccc2oc(NC(=O)N3CCC4(CC3)CN(S(C)(=O)=O)c3ccccc34)nc2c1 [Compound 134, N-(5-methoxybenzoxazol-2-yl)-1-methylsulfonylspiro[indoline-3,4′-piperidine]-1′-carboxamide] | 194 to 196
CCS(=O)(=O)N1CC2(CCN(C(=O)Nc3cn(-c4ccccc4)cn3)CC2)c2ccccc21.Cl | 139 to 140
CS(=O)(=O)N1CC2(CCN(C(=O)Nc3ccc(-c4ccncc4)cc3)CC2)c2ccccc21 | 272 to 274
CCc1cc(-c2ccc(NC(=O)N3CCC4(CC3)CN(S(C)(=O)=O)c3ccccc34)cc2)ccn1.Cl | 220 to 222
COc1cccc(-n2cnc(NC(=O)N3CCC4(CC3)CN(S(C)(=O)=O)c3ccccc34)c2)c1 [Compound 126, N-[1-(3-methoxyphenyl)imidazol-4-yl]-1-methylsulfonylspiro[indoline-3,4′-piperidine]-1′-carboxamide] | 216 to 218
CS(=O)(=O)N1CC2(CCN(C(=O)Nc3cnc(-c4nncs4)cn3)CC2)c2ccccc21 [Compound 146, 1-methylsulfonyl-N-[5-(1,3,4-thiadiazol-2-yl)-2-pyrazinyl]spiro[indoline-3,4′-piperidine]-1′-carboxamide] | 247 to 249
NS(=O)(=O)N1CC2(CCN(C(=O)Nc3cc(-c4ccccc4)no3)CC2)c2ccccc21 [Compound 402, N-(3-phenylisoxazol-5-yl)-1-sulfamoylspiro[indoline-3,4′-piperidine]-1′-carboxamide] | 226 to 227
CCS(=O)(=O)N1CC2(CCN(C(=O)Nc3cnc(-c4ncns4)cn3)CC2)c2ccccc21 [Compound 153, 1-ethylsulfonyl-N-[5-(1,2,4-thiadiazol-5-yl)-2-pyrazinyl]spiro[indoline-3,4′-piperidine]-1′-carboxamide] | 211 to 214
Cc1cccc2ccc(NC(=O)N3CCC4(CC3)CN(S(C)(=O)=O)c3ccccc34)nc12 [Compound 131, 1-methylsulfonyl-N-(8-methylquinolin-2-yl)spiro[indoline-3,4′-piperidine]-1′-carboxamide] | 219 to 220
CS(=O)(=O)N1CC2(CCN(C(=O)Nc3cnc4ccc(Cl)cc4n3)CC2)c2ccccc21 [Compound 132, N-(7-chloroquinoxalin-2-yl)-1-methylsulfonylspiro[indoline-3,4′-piperidine]-1′-carboxamide] | 213 to 214
